Assay results from patent US20240190950A1, “METHOD OF TREATING DISEASES USING GREMLIN1 ANTAGONISTS” (SHANGHAI JIAO TONG UNIVERSITY, priority 2021, published 2024).

Columns and labels:
Format in all cases: cell-based, human
LNCaP cells = assay: GREM1-promoted PCa cell proliferation and sphere formation with FGFR1/MEK inhibitors or BMP4
Description: (§1) MAPK signaling can be activated through many membrane receptors besides FGFR. To test whether the activation of MAPK pathway by GREM1 was via FGFR, we constructed a FGFR1 knockout LNCaP subline by the CRISPR/Cas9 method. […] To further test whether the tumor promoting effect of GREM1 was through FGFR, we utilized small molecule inhibitors of FGFR or EGFR.

[1] = test system: FGFR1/MEK/ERK signaling pathway; assay: FGFR1/MEK/ERK phosphorylation in PCa cell lines (immunoblotting)
Method: In order to test whether Gremlin1 promoted the FGFR-MAPK signaling, we first performed analysis of the expression levels of the four FGFRs in CRPC patients. […] We treated LNCaP and PC3 with GREM1 in different concentrations (1 ng/ml, 10 ng/ml, 100 ng/ml) and examined phosphorylation levels of FGFR1, MEK and ERK.
as §1
14E3 was tested to target GREM1 in human PCa.

[2] = test system: GREM1 expression in LNCaP cells; assay: Regulation of GREM1 expression by AR agonist/antagonist in LNCaP cells (q-PCR, immunoblot, luciferase reporter); details: R1881 1 nM, enzalutamide 10 μg/ml
Description: AR plays a central role in PCa. To assess the relationship between Gremlin1 and AR signaling, we performed further IHC staining for Gremlin1 and PSA, a classic downstream target of AR, on sections of CRPC specimens. […] In addition, we detected a significant increase of GREM1 in a castration resistant LNCaP cell line (termed as LNCaP R), which was derived from xenograft LNCaP tumors implanted in castrated mice, compared to a control LNCaP cell line generated from xenografts in intact mice (FIG. 2A). We then asked whether the expression of GREM1 was regulated by AR signaling. We utilized an AR expressing lentivirus or the CRISPR/Cas9 method to achieve AR upregulation (FIG. 2B) or knockout in the LNCaP PCa cell line (FIG. 2D). […] This conclusion was supported by AR agonist R1881 and antagonist Enzalutamide treatment experiments (FIG. 1D, 1E).
Additionally, we carried out a luciferase reporter assay.

| Compound | proliferation promoting role of GREM1 (LNCaP cells) | sphere-formation promoting role of GREM1 (LNCaP cells) | activation of MAPK/FGFR1 signaling axis by GREM1 in presence of inhibitor ([1]; inhibitor 1 μM, Gremlin1 100 ng/ml, PC3 and LNCaP-resistance cells) | GREM1 mRNA transcription [2] | GREM1 promoter driven luciferase activity [2] | Gremlin1 protein level [2] | time of highest MAPK signaling activation ([1]; FGF 20 ng/ml, PC3 and LNCaP cells, quickly diminished afterwards) [min] |
| --- | --- | --- | --- | --- | --- | --- | --- |
| CCN1CCN(c2ccc(Nc3cc(N(C)C(=O)Nc4c(Cl)c(OC)cc(OC)c4Cl)ncn3)cc2)CC1 [BGJ398, reference compound] | significantly compromised | significantly compromised | attenuated |  |  |  |  |
| C[C@]1(O)CC[C@H]2[C@@H]3CCC4=CC(=O)CCC4=C3C=C[C@@]21C [R1881] |  |  |  | downregulated | greatly inhibited | downregulated |  |
| CNC(=O)c1ccc(N2C(=S)N(c3ccc(C#N)c(C(F)(F)F)c3)C(=O)C2(C)C)cc1F [enzalutamide] |  |  |  | significantly increased | enhanced | significantly increased |  |
| FGF1: known FGFR1 ligand used as a positive control |  |  |  |  |  |  | 10 |
